# Values of other authors as cited in publication PMC11070244 (Current Research in Structural Biology, 2024).
# Tests used:
# BChE [1] = molecular target: T1, BChE (Homo sapiens, UniProt P06276); settings: ref Khan et al., 2009
# BChE [2] = molecular target: T1, BChE; settings: in vitro experiments; ref Durmaz et al. (2023)
# AChE = AChE (Homo sapiens, UniProt P22303); settings: in vitro experiments; ref Durmaz et al. (2023)
# Chain of AChE (P22303 32-614): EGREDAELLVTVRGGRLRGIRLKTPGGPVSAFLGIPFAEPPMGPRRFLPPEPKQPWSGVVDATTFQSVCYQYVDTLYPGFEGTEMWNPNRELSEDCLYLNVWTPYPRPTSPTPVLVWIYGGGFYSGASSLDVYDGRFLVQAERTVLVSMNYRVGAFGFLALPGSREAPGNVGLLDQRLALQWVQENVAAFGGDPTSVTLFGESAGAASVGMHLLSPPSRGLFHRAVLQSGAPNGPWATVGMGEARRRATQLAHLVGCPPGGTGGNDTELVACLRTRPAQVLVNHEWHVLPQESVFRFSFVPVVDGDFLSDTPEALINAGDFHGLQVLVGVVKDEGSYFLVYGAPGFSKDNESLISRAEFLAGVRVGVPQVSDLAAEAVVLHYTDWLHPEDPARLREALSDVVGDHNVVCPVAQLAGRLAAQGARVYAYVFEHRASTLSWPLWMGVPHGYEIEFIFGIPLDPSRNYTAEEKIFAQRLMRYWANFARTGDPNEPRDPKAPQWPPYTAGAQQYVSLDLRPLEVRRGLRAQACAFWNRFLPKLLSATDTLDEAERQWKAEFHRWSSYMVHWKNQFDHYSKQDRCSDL
# T1 sequence (P06276 29-602, species assumed): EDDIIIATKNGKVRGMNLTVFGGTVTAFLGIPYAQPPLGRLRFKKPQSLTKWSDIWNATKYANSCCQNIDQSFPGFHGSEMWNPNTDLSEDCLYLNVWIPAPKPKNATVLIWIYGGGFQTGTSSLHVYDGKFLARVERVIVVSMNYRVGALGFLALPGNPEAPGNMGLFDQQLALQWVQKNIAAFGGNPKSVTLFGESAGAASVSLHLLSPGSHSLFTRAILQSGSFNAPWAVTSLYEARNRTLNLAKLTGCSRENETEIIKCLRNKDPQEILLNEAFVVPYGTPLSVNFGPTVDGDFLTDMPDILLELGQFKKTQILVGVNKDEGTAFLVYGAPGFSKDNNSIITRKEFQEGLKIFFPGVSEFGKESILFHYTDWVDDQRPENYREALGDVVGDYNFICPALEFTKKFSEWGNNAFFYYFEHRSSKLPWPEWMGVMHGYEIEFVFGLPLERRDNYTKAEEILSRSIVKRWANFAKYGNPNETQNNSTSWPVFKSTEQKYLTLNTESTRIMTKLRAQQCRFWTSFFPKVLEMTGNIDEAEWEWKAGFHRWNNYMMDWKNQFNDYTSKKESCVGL
Structure (SMILES),Docking score with BChE compared to donepezil (BChE [1]),Inhibition of BChE activity (BChE [2]),Inhibition of AChE activity (AChE)
O=c1c(O)c(-c2ccc(O)c(O)c2)oc2cc(O)cc(O)c12 [quercetin],stronger docking score,–,–
O=C(O)[C@H]1O[C@@H](Oc2cc3oc(-c4ccccc4)cc(=O)c3c(O)c2O)[C@H](O)[C@@H](O)[C@@H]1O [baicalin],–,significantly inhibited,significantly inhibited
